Consider 2 compounds from US9926293B2, “Multivalent RAS binding compounds” (THE TRUSTEES OF COLUMBIA UNIVERSITY IN THE CITY OF NEW YORK, priority 2014, dated 2018).

SMILES strings stand for the structures.

Data set [1] concerns KRAS^LSLG12D; p53^fl/fl; Pdx1-Cre pancreatic tumors. Kind of data set: KP^f/fC mouse study. In kind it is in vivo. The settings on record: for toxicity: 30 mg/kg once daily i.p. The method, then:
KRAS^LSLG12D; p53^fl/fl; Pdx1-Cre (KP^F/FC) mice have been previously described (Bardeesy et al., 2006). Animals were housed in a barrier facility and monitored daily prior to enrollment on studies. All experiments were carried out in compliance with established IACUC guidelines of Columbia University.
Paraffin embedded samples were sectioned at […] and mounted on positively charged sample slides. These slides were heated at 60° C. for 15-30 minutes and subsequently rehydrated by standard protocols. Unmasking was performed in 10 mM citrate buffer, pH 6 for 5 minutes in a pressure cooker at high temperature, followed by a peroxidase quench in 3% hydrogen peroxide for 20 minutes. Blocking was carried out using 1.5% horse serum and 2% animal free blocker (Vector Labs) in TBS-T for 1 hour at room temperature. Slides were incubated with primary antibody (cleaved caspase-3, catalog no. 9664; ERK, catalog no. 4695; pERK, catalog no. 4376. All antibodies from Cell Signaling) overnight at 4° C. Slides were then allowed to equilibrate to room temperature prior to washing with TBS-T and incubation with secondary antibody (ImmPress polymer reagent, Vector Labs). Signal was developed with ImmPACT DAB Peroxidase Substrate (Vector Labs). Slides were counterstained with hematoxylin for 30 seconds. For quantification of cleaved-caspase 3 staining, all available 40× fields on three separate sections of biopsy samples and twenty total 40× fields from two separate sections of necropsy samples were analyzed for each study mouse.
Mice were monitored closely for changes in health status and were sacrificed after 5 days on study or once they met endpoint criteria in keeping with IACUC standards.

The subject of data set [2] is phosphorylated AKT in BJeLR cells. The data set can be described thus: Western blot of phosphorylated AKT. It counts as cell-based. The settings on record: 2 μM and 8 μM, 24 hours, serum free. On the procedure:
FIG. 21A-FIG. 21B show BJeLR cells were treated as described in FIG. 19A-FIG. 19B and the lysate was subjected to detection of phosphorylated AKT ([…]) and total AKT by western blotting (FIG. 21A).
(§1) BJeLR cells were seeded in 60 mm dishes at 1 million cells/dish in media containing DMEM and 10% FBS with 1% penicillin and streptomycin (PS), 12-16 hours prior to use. The medium was then aspirated and compounds added as solutions in serum free medium (DMEM with 1% PS) to the dishes and treated for 24 hours or at the indicated time points. Following treatment, the medium was aspirated from each dish and cells were washed twice with PBS. […] Antibodies for pERK1/2, ERK1/2, pAKT ser473, AKT, pan-RAS, RALA, PI3Kgamma (Cell signaling), and RAF-1 (Santa Cruz) were detected using a goat anti-rabbit or goat anti-mouse IgG antibody conjugated to an IRdye at 800CW and 680CW conjugated, respectively (Li-COR biosciences).
(In general: In western blotting, separated proteins are transferred to a membrane and probed.)

In data set [3] the test system is phosphorylated ERK in BJeLR (HRAS^G12V). Kind of data set: Western blot of phosphorylated ERK. It counts as cell-based. To be noted: 2 μM and 8 μM, 24 hours, serum free. On the procedure: FIG. 19A-FIG. 19B show BJeLR cells were treated with DMSO, RAS inhibitor at 2 μM and 8 μM, U0126 at 8 μM, or BEZ-235 at 0.2 μM for 24 hours under serum free conditions. Cells were then lysed and the lysate was subjected to detection of phosphorylated Erk and total Erk by western blotting (FIG. 19A). Three independent experiments yielded essentially equivalent results.
as §1

Data set [4] relates to RAS-RAF interaction in BJeLR cells. The data set can be described thus: Cell-based RAS pulldown with CRAF-RBD agarose beads. The settings on record: 2 μM and 8 μM, 24 hours, serum free. On the procedure: FIG. 20A-FIG. 20B show BJeLR cells were treated as described in FIG. 19A-FIG. 19B and the lysate was incubated with CRAF-RBD bound agarose beads. The beads were then washed three times with PBS to remove any unbound RAS and the bound fraction was then denatured and subjected to detection by western blotting using a pan-RAS antibody (FIG. 20A).
BJeLR cells were seeded at one million cells/10 cm dish in 10% FBS and incubated at 37° C. overnight. The medium was then aspirated and replaced with serum free media containing the inhibitors (from 10 mM DMSO stocks). The cells were then incubated for 24 hours at 37° C. The medium was removed, washed with cold PBS, lysed and spun down at 13,000 rpm at 4° C. to remove unlysed cells and debris. The lysate was incubated with Raf-1 RBD agarose beads (EMD millipore) for 2 hours with rotation at 4° C. The solution was then spun down at 1500×g and the supernatant removed. The beads were washed twice with PBS, resuspended in 2.5×SDS, and then analyzed by western blotting procedure.

For data set [5], the system named is MDA-MB-231 cell line (KRAS^G13D). Kind of data set: Multicellular tumor spheroids in low adherence plates. In kind it is cell-based. To be noted: 72 hours; for size of multicellular tumor spheroids: low-adherence plates. On the procedure:
Multicellular Tumor Spheroids
Multicellular tumor spheroids (MCTSs) were grown in 96-well Corningware Ultra Low Attachment (ULA) Plates (CLS 3474). 100 μL of cell suspension containing 2×10^4 cells/ml were added to each well of the ULA plate containing 100 μL of a 2× solution of the desired concentration of compounds. Cells were incubated at 37° C., 5% CO2 for 72 hours to allow for MCTS formation. After 72 hours, 50 μL of a 50% solution of Alamar blue and medium was added and incubated for 12 hours prior to measurements on a Victor3 plate reader as previously described.

Setting [6] is: pre- vs post-treatment tumor samples, 30 mg/kg i.p.

As for `NC1(C(=O)NCCCn2cc(-c3ccc(OC(F)(F)F)cc3)c3cc(CN4CCN(Cc5c(Cl)cccc5Cl)CC4)ccc32)CCNCC1` [Compound 31MEW44, 4-amino-N-(3-(5-((4-(2,6-dichlorobenzyl)piperazin-1-yl)methyl)-3-(4-(trifluoromethoxy)phenyl)-1H-indol-1-yl)propyl)piperidine-4-carboxamide], the toxicity result in data set [1] (KP^f/fC mice) is “toxicity was observed”. Moreover, the “cleaved caspase-3 in tumor” value in data set [1] (immunohistochemistry, 30 mg/kg i.p.) is recorded as “modest increase in cleaved caspase-3”. Moreover, in data set [1] (setting [6]), the “phosphorylated AKT (S473) in tumor” value is reported as “substantial decrease” and the “phosphorylated ERK1/2 in tumor” value is “substantial decrease”. Further, in data set [1] (wild-type mice), the toxicity entry was “not in wild-type mice”. Moreover, the “phosphorylated AKT” value in data set [2] was “dose-dependent decrease in phosphorylated AKT”. In data set [3], the pERK abundance entry was “effectively decreased pERK abundance in a dose-dependent manner”. Further, the “CRAF-RBD-bound RAS” value in data set [4] is given as “dose-dependent decrease in CRAF-RBD-bound RAS”. For the same compound, the “effect on three dimensional multicellular spheroids” value in data set [5] (20 μM) is reported as “killed”. Further, in data set [5], the “size of multicellular tumor spheroids” value is on record as “decreased in size in a dose-dependent manner”.
Consider `NC1(C(=O)NCCCn2cc(-c3cccc(F)c3)c3c(CN4CCN(CCOc5ccc(Cl)cc5)CC4)cccc32)CCNCC1` [Compound 34MEW43, 4-amino-N-(3-(4-((4-(2-(4-chlorophenoxy)ethyl)piperazin-1-yl)methyl)-3-(3-fluorophenyl)-1H-indol-1-yl)propyl)piperidine-4-carboxamide], for which the “phosphorylated AKT” value in data set [2] is given as “dose-dependent decrease in phosphorylated AKT”. Besides, in data set [3], the pERK abundance result is on record as “effectively decreased pERK abundance in a dose-dependent manner”. For the same compound, the “CRAF-RBD-bound RAS” value in data set [4] was “dose-dependent decrease in CRAF-RBD-bound RAS”. The “size of multicellular tumor spheroids” value in data set [5] is “decreased in size in a dose-dependent manner”.
